The assay concerns the target T1, human GnRH receptor (Homo sapiens, UniProt P30968).
T1 construct: The cDNA for the human GnRH receptor is cloned into the plasmid expression vector, pcDNA 3; expressed in transfected cells; host or cells: HEK 293 cells, stably transfected (pcDNA 3); membrane preparation
T1 sequence (P30968 1-328): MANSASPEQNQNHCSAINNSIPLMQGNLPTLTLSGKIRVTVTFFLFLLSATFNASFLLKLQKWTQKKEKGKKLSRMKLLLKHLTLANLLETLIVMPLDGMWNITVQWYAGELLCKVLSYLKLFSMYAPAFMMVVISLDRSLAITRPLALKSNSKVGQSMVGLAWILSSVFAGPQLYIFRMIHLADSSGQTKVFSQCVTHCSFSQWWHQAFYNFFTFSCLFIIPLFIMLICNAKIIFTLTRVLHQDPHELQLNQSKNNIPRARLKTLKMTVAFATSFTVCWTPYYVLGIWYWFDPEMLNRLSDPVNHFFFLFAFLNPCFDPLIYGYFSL
The assay is described as follows: GnRH receptor competitive radioligand binding assay (125I-GnRH-A, HEK 293 cell membranes). The following applies: compound at 10 μM. An excerpt: The cDNA for the human GnRH receptor is cloned into the plasmid expression vector, pcDNA 3 (In Vitrogen), and stably transfected in HEK 293 cells (a cell line developed by Dr. Stuart Sealfon, Mount Sinai Medical School, New York, N.Y.).
The human GnRH receptor (hGnRH) is cloned into pcDNA 3 (In Vitrogen), which provides high-level expression and a neomycin resistance marker. Lipofectamine (GIBCO BRL) is used to transfect HEK 293 cells with plasmid DNA. This method involves mixing the plasmid and reagent in serum-free medium, allowing DNA-liposome complexes to form, and overlaying cells with this solution. The HEK 293 cells are plated (seeded) on a 10-cm tissue culture dish at a density of 3×10^6 cells/dish the day before transfection. For each plate, 8 μg DNA plus 0.8 mL serum-free medium is mixed with 48 μL lipofectamine plus 0.8 mL serum-free medium, followed by incubation for 30 minutes at room temperature to allow DNA-liposome complexes to form. Serum-free medium is added to give a final volume of 6 mL/plate. The cells are rinsed twice with serum-free medium and overlayed with the DNA-liposome mixture. Five hours after transfection, an equal volume (6 mL) of medium containing 20% FBS (fetal bovine serum) is added. The cells are fed with fresh complete medium 18-24 hours after transfection. The cells are split 72 hours following transfection, at densities of 1:10 and 1:20. Stable tranformants are selected for by growth of the cells in antibiotic containing medium (G418, Sigma Chemical Company (also known as Geneticin)). Colonies are isolated and tested for receptor expression by radioligand binding and by measuring phosphoinositol turnover.
HEK 293 cells stably transfected with human GnRH receptors as described above are grown in MEM (minimal essential medium, available from Sigma Chemical Company) supplemented with 0.1% G418 (Sigma Chemical Company). Cells are homogenized in buffer A containing 50 mM Tris (pH 74.), 0.32M sucrose, 2 mM ethyleneglycol-bis(β-aminoethyl)-N,N,N′,N′-tetraacetic acid (EGTA), 1 mM phenylmethylsulfonyl fluoride (PMSF), 5 μg/mL aprotinen, 5 μg/mL Pepstatin A, and 1 μg/mL leupeptin. The homogenized cells are centrifuged at 4° C. at 20,000×g for 25 minutes, resuspended in buffer A, and recentrifuged at 4° C. at 20,000×g for an additional 25 minutes. Total membrane protein is determined with a BCA kit (Pierce, Rockford, Ill.). Membranes are stored at −70° C. at a final membrane protein concentration of 5 mg/mL.
The radioiodinated agonist analog of GnRH, [des-Gly^10, D-Ala^8]GnRH ethylamide (GnRH-A), is used as the labeled ligand. One μg of GnRH-A diluted in 0.1M acetic acid is added to an lodogen®-coated borosilicate glass tube pierce) containing 35 μL of 0.05M phosphate buffer (pH 7.4-7.6) and 1 mCi of Na[^125I]. The reaction mixture is vortexed and incubated for 1 minute at room temperature. After one minute, the mixture is vortexed again and allowed to incubate for an additional minute. Two mL of 0.5M acetic acid/1% BSA is added to the reaction tube, and the mixture is added to a C18 Sep-Pak cartridge. The cartridge is washed with subsequent washes of 5 mL H2O and 5 mL 0.5M acetic acid, and then eluted with 5×1 mL of 60% CH3CN/40% 0.5M acetic acid. The eluant is diluted with 3×volume of HPLC buffer A (0.1% TFA in H2O) and loaded onto a C18 column. The iodinated product is eluted over 20-25 minutes with a gradient of 25-100% CH3CN containing 0.1% TFA. The radioactive fractions (750 μL/fraction) are collected into clean polypropylene tubes containing 10 μL of 10% BSA. Fractions are assessed for biological activity by radioligand binding. Active fractions are utilized to screen the compounds for competitive binding assays.
HEK 293 cell membranes stably expressing hGnRHR (human GnRH receptors) are diluted to 0.5-1.0 mg/mL with assay buffer containing 50 mM HEPES (pH 7.4), 1 mM ethylenediarninetetraacetic acid (EDTA), 2.5 mM MgCl2, and 0.1% BSA. […]

[1] abbreviates: average of 1st and 2nd test, read-out: Average % Remaining (percent of specific binding remaining).
The mark [2] stands for this setting: crude compounds, 125I-GnRH-A, lower value = higher inhibition, read-out: % Remaining 1st Test (percent of specific binding remaining).
Where [3] appears, read: crude compounds, 125I-GnRH-A, lower value = higher inhibition, read-out: % Remaining 2nd Test (percent of specific binding remaining).

Each structure is given as a SMILES string. Read-outs that look alike come from different tables or passages of the source.

`Cc1cc2c(cc1CN(CC1CCC(CNC(=N)N)CC1)C(=O)c1c(C)noc1C)C(C)(C)CCC2(C)C` (stereo not drawn) [Compound 96]: the remaining activity at 10 µM turned out to be 52% under setting [1], 44% under setting [2] and 60% under setting [3].
Turning to `CC(=O)N(Cc1cc2c(cc1C)C(C)(C)CCC2(C)C)CC1CCCC(CNC(=N)N)C1` (stereo not drawn) [Compound 57], the remaining activity at 10 µM is 55% under setting [1], 47% under setting [2] and 63% under setting [3].
The like results for `CC(C)(C)c1ccc(CN(CC2CCCC(CNC(=N)N)C2)C(=O)c2cccs2)cc1` (stereo not drawn) [Compound 43] were, in that order, 50%, 47% and 53%.
For `Cc1cc2c(cc1CN(Cc1ccc(CNC(=N)N)cc1)C(=O)c1ccccc1)C(C)(C)CCC2(C)C` [Compound 14] the same measures were 55%, 56% and 54%.
For `N=C(N)NCCCCN(CC12CC=CCC1C1CC=CCC1O2)C(=O)c1ccc2ccccc2c1` (stereo not drawn) [Compound 26] the same measures were 36%, 35% and 37%.
`Cc1cc2c(cc1CN(CCCCNC(=N)N)C(=O)C1CCCCC1)C(C)(C)CCC2(C)C` [Compound 27]: the remaining activity at 10 µM runs as follows: under setting [1], 59%; under setting [2], 56%; under setting [3], 62%.
For `CC(=O)N(Cc1cc2c(cc1C)C(C)(C)CCC2(C)C)CC1CCC(CNC(=N)N)CC1` (stereo not drawn) [Compound 83] the same measures were 55%, 53% and 57%.
The like results for `N=C(N)NCC1CCCC(CN(Cc2ccc(OCc3ccccc3)c(OCc3ccccc3)c2)C(=O)C2CCCCC2)C1` (stereo not drawn) [Compound 59] were, in that order, 59%, 57% and 60%.
On to `N=C(N)NCC1CCC(CN(Cc2cccc(Oc3ccc(Cl)cc3)c2)C(=O)C2CCCC2)CC1` (stereo not drawn) [Compound 77], for which the remaining activity at 10 µM was 52% under setting [1], 48% under setting [2] and 56% under setting [3].
Consider `CN(C)COc1ccc(CN(CC2CCC(CNC(=N)N)CC2)C(=O)c2cc3ccccc3s2)cc1` (stereo not drawn) [Compound 74], for which the remaining activity at 10 µM by setting is: under setting [1], 50%; under setting [2], 51%; under setting [3], 48%.
Turning to `CCOc1cc(OCC)c(OCC)cc1CN(Cc1ccc(CNC(=N)N)cc1)C(=O)c1ccco1` [Compound 22], the remaining activity at 10 µM runs as follows: under setting [1], 55%; under setting [2], 52%; under setting [3], 57%.
For `N=C(N)NCc1ccc(CN(CC23CC=CCC2C2CC=CCC2O3)C(=O)c2cccc3ccccc23)cc1` (stereo not drawn) [Compound 4] the same measures were 40%, 40% and 40%.
The like results for `N=C(N)NCc1ccc(CN(CC23CC=CCC2C2CC=CCC2O3)C(=O)c2ccccc2)cc1` (stereo not drawn) [Compound 8] were, in that order, 45%, 42% and 48%.
As for `CC(C)(C)c1ccc(CN(CC2CCC(CNC(=N)N)CC2)C(=O)c2ccco2)cc1` (stereo not drawn) [Compound 71], the remaining activity at 10 µM under setting [1] is 60%, the remaining activity at 10 µM under setting [2] is 54% and the remaining activity at 10 µM under setting [3] stood at 65%.
In the case of `CCOC(=O)C(=O)N(Cc1cc2c(cc1C)C(C)(C)CCC2(C)C)CC1CCC(CNC(=N)N)CC1` (stereo not drawn) [Compound 94], the remaining activity at 10 µM was found to be 57% under setting [1], 61% under setting [2] and 52% under setting [3].
For `CCCCN(CCCC)c1ccc(CN(CC2CCC(CNC(=N)N)CC2)C(=O)c2ccco2)cc1` (stereo not drawn) [Compound 88] the same measures were 57%, 58% and 56%.
The like results for `N=C(N)NCC1CCCC(CN(Cc2ccc(OCc3ccccc3)c(OCc3ccccc3)c2)C(=O)c2ccc(Cl)nc2)C1` (stereo not drawn) [Compound 64] were, in that order, 49%, 46% and 51%.
The like results for `COC(=O)CCCCCC(=O)N(Cc1cc2c(cc1C)C(C)(C)CCC2(C)C)CC1CCC(CNC(=N)N)CC1` (stereo not drawn) [Compound 100] were, in that order, 55%, 52% and 58%.
In the case of `N=C(N)NCc1cccc(CN(CC23CC=CCC2C2CC=CCC2O3)C(=O)c2cccc3ccccc23)c1` (stereo not drawn) [Compound 38], the remaining activity at 10 µM stood at 57% under setting [1], 59% under setting [2] and 55% under setting [3].
In the case of `CC(C)(C)c1ccc(CN(Cc2ccc(CNC(=N)N)cc2)C(=O)c2cccc3ccccc23)cc1` [Compound 1], the remaining activity at 10 µM under setting [1] was found to be 57%, the remaining activity at 10 µM under setting [2] was 57% and the remaining activity at 10 µM under setting [3] was found to be 57%.
As to `Cc1cc2c(cc1CN(Cc1ccc(CNC(=N)N)cc1)C(=O)C1CCCCC1)C(C)(C)CCC2(C)C` [Compound 10], the remaining activity at 10 µM under setting [1] is 53%, the remaining activity at 10 µM under setting [2] came out at 51% and the remaining activity at 10 µM under setting [3] was 54%.
For `Cc1cc2c(cc1CN(CCCCNC(=N)N)C(=O)c1ccco1)C(C)(C)CCC2(C)C` [Compound 30] the same measures were 33%, 29% and 37%.
Consider `Cc1cc2c(cc1CN(Cc1ccc(CNC(=N)N)cc1)C(=O)c1cccc3ccccc13)C(C)(C)CCC2(C)C` [Compound 11], for which the remaining activity at 10 µM under setting [1] amounted to 53%, the remaining activity at 10 µM under setting [2] came to 55% and the remaining activity at 10 µM under setting [3] was 50%.
For `Cc1cc2c(cc1CN(CC1CCCC(CNC(=N)N)C1)C(=O)C1CCCCC1)C(C)(C)CCC2(C)C` (stereo not drawn) [Compound 52] the same measures were 58%, 57% and 59%.
The like results for `CC(C)(C)c1ccc(CN(Cc2ccc(CNC(=N)N)cc2)C(=O)c2ccccc2)cc1` [Compound 2] were, in that order, 57%, 59% and 54%.
The like results for `CC(C)(C)c1ccc(CN(CC2CCC(CNC(=N)N)CC2)C(=O)C2CCCC2)cc1` (stereo not drawn) [Compound 73] were, in that order, 58%, 59% and 57%.

The values above are taken from patent US6646137B1, “Non-peptide GnRH agents” (priority 1998, dated 2003).
